Legend:
Assay in all cases: relative viability (nuclei count vs DMSO), 5 days (fraction); higher = more cells survive
H3255 = test system: H3255
Method in brief: (§1)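 Relative viability is defined as nuclei in treated wells over nuclei in vehicle wells. Duplicate plates were run and medians reported. Lung cancer cell lines in 1536-well plates were dosed by pin tool one day after seeding, with one drug or with a fixed anchor-drug dose plus five library-drug doses (not always all listed) in √10 steps, and nuclei were counted after 5 days.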

SW 1573 = test system: SW 1573
Method in brief: as §1

NCI-H1437 = test system: NCI-H1437
Method in brief: as §1

LU99A = test system: LU99A
Method in brief: as §1

201T = test system: 201T
Method in brief: as §1

LCLC-97TM1 = test system: LCLC-97TM1
Method in brief: as §1

PC-3 [JPC-3] = test system: PC-3 [JPC-3]
Method in brief: as §1

NCI-H647 = test system: NCI-H647
Method in brief: as §1

EPLC-272H = test system: EPLC-272H
Method in brief: as §1

NCI-H2087 = test system: NCI-H2087
Method in brief: as §1

NCI-H2342 = test system: NCI-H2342
Method in brief: as §1

NCI-H358 = test system: NCI-H358
Method in brief: as §1

HOP-62 = test system: HOP-62
Method in brief: as §1

HCC-827 = test system: HCC-827
Method in brief: as §1

NCI-H1666 = test system: NCI-H1666
Method in brief: as §1

BEN = test system: BEN
Method in brief: as §1

COR-L 105 = test system: COR-L 105
Method in brief: as §1

NCI-H1395 = test system: NCI-H1395
Method in brief: as §1

LOU-NH91 = test system: LOU-NH91
Method in brief: as §1

EKVX = test system: EKVX
Method in brief: as §1

NCI-H2085 = test system: NCI-H2085
Method in brief: as §1

NCI-H1975 = test system: NCI-H1975
Method in brief: as §1

In the case of `CC1(C)CCC(c2ccc(Cl)cc2)=C(CN2CCN(c3ccc(C(=O)NS(=O)(=O)c4ccc(N[C@H](CCN5CCOCC5)CSc5ccccc5)c(S(=O)(=O)C(F)(F)F)c4)cc3)CC2)C1` [Navitoclax] + Cc1nc(Nc2ncc(C(=O)Nc3c(C)cccc3Cl)s2)cc(N2CCN(CCO)CC2)n1 [Dasatinib] (partner 0.075 µM), the relative viability (H3255; first compound 0.005 µM) is reported as 0.344, the relative viability (H3255; first compound 0.01581 µM) is reported as 0.424 and the relative viability (H3255; first compound 0.05 µM) is reported as 0.346. It also gave a relative viability (H3255; first compound 0.1581 µM) of 0.31, a relative viability (H3255; first compound 0.5 µM) of 0.204 and a relative viability (SW 1573; first compound 0.005 µM) of 0.522. The relative viability (SW 1573; first compound 0.01581 µM) was 0.699, the relative viability (SW 1573; first compound 0.05 µM) was 0.637 and the relative viability (SW 1573; first compound 0.1581 µM) was 0.482. It also gave a relative viability (SW 1573; first compound 0.5 µM) of 0.459, a relative viability (NCI-H1437; first compound 0.005 µM) of 0.377 and a relative viability (NCI-H1437; first compound 0.01581 µM) of 0.513. It also gave a relative viability (NCI-H1437; first compound 0.05 µM) of 0.287, a relative viability (NCI-H1437; first compound 0.1581 µM) of 0.394 and a relative viability (NCI-H1437; first compound 0.5 µM) of 0.41. It also gave a relative viability (LU99A; first compound 0.005 µM) of 0.542, a relative viability (LU99A; first compound 0.01581 µM) of 0.879 and a relative viability (LU99A; first compound 0.05 µM) of 0.418. It also gave a relative viability (LU99A; first compound 0.1581 µM) of 0.618, a relative viability (LU99A; first compound 0.5 µM) of 0.821 and a relative viability (201T; first compound 0.005 µM) of 0.603. For the same molecule, the relative viability (201T; first compound 0.01581 µM) was 0.662, the relative viability (201T; first compound 0.05 µM) was 0.587 and the relative viability (201T; first compound 0.1581 µM) was 0.592. It also gave a relative viability (201T; first compound 0.5 µM) of 0.714, a relative viability (LCLC-97TM1; first compound 0.005 µM) of 0.822 and a relative viability (LCLC-97TM1; first compound 0.01581 µM) of 0.939. The relative viability (LCLC-97TM1; first compound 0.05 µM) was 0.648, the relative viability (LCLC-97TM1; first compound 0.1581 µM) was 0.825 and the relative viability (LCLC-97TM1; first compound 0.5 µM) was 0.826. For the same molecule, the relative viability (PC-3 [JPC-3]; first compound 0.005 µM) was 1.02, the relative viability (PC-3 [JPC-3]; first compound 0.01581 µM) was 1.07 and the relative viability (PC-3 [JPC-3]; first compound 0.05 µM) was 0.773. The relative viability (PC-3 [JPC-3]; first compound 0.1581 µM) was 0.97, the relative viability (PC-3 [JPC-3]; first compound 0.5 µM) was 0.858 and the relative viability (NCI-H647; first compound 0.005 µM) was 0.15. For the same molecule, the relative viability (NCI-H647; first compound 0.01581 µM) was 0.192, the relative viability (NCI-H647; first compound 0.05 µM) was 0.173 and the relative viability (NCI-H647; first compound 0.1581 µM) was 0.17. For the same molecule, the relative viability (NCI-H647; first compound 0.5 µM) was 0.315, the relative viability (EPLC-272H; first compound 0.005 µM) was 0.372 and the relative viability (EPLC-272H; first compound 0.05 µM) was 0.359. For the same molecule, the relative viability (EPLC-272H; first compound 0.1581 µM) was 0.361, the relative viability (EPLC-272H; first compound 0.5 µM) was 0.345 and the relative viability (NCI-H2087; first compound 0.005 µM) was 0.901. For the same molecule, the relative viability (NCI-H2087; first compound 0.01581 µM) was 0.88, the relative viability (NCI-H2087; first compound 0.1581 µM) was 0.887 and the relative viability (NCI-H2087; first compound 0.5 µM) was 0.793. The relative viability (NCI-H2342; first compound 0.005 µM) was 0.32, the relative viability (NCI-H2342; first compound 0.01581 µM) was 0.309 and the relative viability (NCI-H2342; first compound 0.05 µM) was 0.27. The relative viability (NCI-H2342; first compound 0.1581 µM) was 0.278, the relative viability (NCI-H2342; first compound 0.5 µM) was 0.31 and the relative viability (NCI-H358; first compound 0.005 µM) was 0.188. For the same molecule, the relative viability (NCI-H358; first compound 0.01581 µM) was 0.219, the relative viability (NCI-H358; first compound 0.05 µM) was 0.142 and the relative viability (NCI-H358; first compound 0.1581 µM) was 0.165. It also gave a relative viability (NCI-H358; first compound 0.5 µM) of 0.199, a relative viability (HOP-62; first compound 0.005 µM) of 0.593 and a relative viability (HOP-62; first compound 0.01581 µM) of 0.752. It also gave a relative viability (HOP-62; first compound 0.05 µM) of 0.623, a relative viability (HOP-62; first compound 0.1581 µM) of 0.719 and a relative viability (HOP-62; first compound 0.5 µM) of 0.678. It also gave a relative viability (HCC-827; first compound 0.005 µM) of 0.388, a relative viability (HCC-827; first compound 0.01581 µM) of 0.387 and a relative viability (HCC-827; first compound 0.05 µM) of 0.297. It also gave a relative viability (HCC-827; first compound 0.1581 µM) of 0.271, a relative viability (HCC-827; first compound 0.5 µM) of 0.359 and a relative viability (NCI-H1666; first compound 0.005 µM) of 0.647. The relative viability (NCI-H1666; first compound 0.01581 µM) was 0.853, the relative viability (NCI-H1666; first compound 0.05 µM) was 0.755 and the relative viability (NCI-H1666; first compound 0.1581 µM) was 0.833. The relative viability (NCI-H1666; first compound 0.5 µM) was 0.766, the relative viability (BEN; first compound 0.005 µM) was 0.301 and the relative viability (BEN; first compound 0.01581 µM) was 0.312. It also gave a relative viability (BEN; first compound 0.05 µM) of 0.333, a relative viability (BEN; first compound 0.1581 µM) of 0.297 and a relative viability (BEN; first compound 0.5 µM) of 0.0643. It also gave a relative viability (COR-L 105; first compound 0.005 µM) of 0.331, a relative viability (COR-L 105; first compound 0.01581 µM) of 0.458 and a relative viability (COR-L 105; first compound 0.05 µM) of 0.331. For the same molecule, the relative viability (COR-L 105; first compound 0.1581 µM) was 0.342, the relative viability (COR-L 105; first compound 0.5 µM) was 0.306 and the relative viability (NCI-H1395; first compound 0.005 µM) was 0.404. For the same molecule, the relative viability (NCI-H1395; first compound 0.01581 µM) was 0.42, the relative viability (NCI-H1395; first compound 0.05 µM) was 0.378 and the relative viability (NCI-H1395; first compound 0.1581 µM) was 0.387. For the same molecule, the relative viability (NCI-H1395; first compound 0.5 µM) was 0.483, the relative viability (LOU-NH91; first compound 0.005 µM) was 0.522 and the relative viability (LOU-NH91; first compound 0.01581 µM) was 0.566. It also gave a relative viability (LOU-NH91; first compound 0.05 µM) of 0.454, a relative viability (LOU-NH91; first compound 0.1581 µM) of 0.5 and a relative viability (LOU-NH91; first compound 0.5 µM) of 0.377. It also gave a relative viability (EKVX; first compound 0.005 µM) of 0.607, a relative viability (EKVX; first compound 0.01581 µM) of 0.583 and a relative viability (EKVX; first compound 0.05 µM) of 0.512. It also gave a relative viability (EKVX; first compound 0.1581 µM) of 0.692, a relative viability (EKVX; first compound 0.5 µM) of 0.598 and a relative viability (NCI-H2085; first compound 0.005 µM) of 0.234. The relative viability (NCI-H2085; first compound 0.01581 µM) was 0.234, the relative viability (NCI-H2085; first compound 0.05 µM) was 0.199 and the relative viability (NCI-H2085; first compound 0.1581 µM) was 0.228. The relative viability (NCI-H2085; first compound 0.5 µM) was 0.315, the relative viability (NCI-H1975; first compound 0.005 µM) was 0.346 and the relative viability (NCI-H1975; first compound 0.01581 µM) was 0.36. For the same molecule, the relative viability (NCI-H1975; first compound 0.05 µM) was 0.415, the relative viability (NCI-H1975; first compound 0.1581 µM) was 0.337 and the relative viability (NCI-H1975; first compound 0.5 µM) was 0.323.
